One block for each molecule: values may come before it.
Columns and labels:
[1] = target: T1, EphA2-ephrinA1 binding (Mus musculus, UniProt Q03145); assay: ELISA EphA2-ephrinA1 binding (displacement and saturation); settings: for decrease of EphA2-ephrinA1 binding: bile acids, repeat of the 200 µM experiment
T1 construct: we immobilized EphA2-Fc- ectodomain on proper ELISA plates; purchased R&D systems 639-A2 (EphA2-Fc); BT602 (biotinylated ephrinA1-Fc)
Description: Our chemical collection (Table S1) was stocked in a 20 mM dimethyl sulfoxide (DMSO) solution and we performed binding assay at a concentration of 200 µM. Only compounds displacing more than 40% ephrinA1 from EphA2 receptor were considered for a full concentration-binding curve. […] The day after wells were washed three times with washing buffer (PBS +0.05% tween20, pH 7.5) and blocked with 300 µl of blocking solution (PBS +0.5% BSA) for 1 hour at 37°C. Compounds were added to the wells at proper concentration in 1% dimethyl sulfoxide (DMSO) and incubated at 37°C for 1 hour. Biotinylated ephrinA1-Fc (R&D BT602) was added at 37°C for 4 hours at 30 ng/ml in displacement assays or in a range from 1 to 2000 ng/ml in saturation studies. […] The reaction was stopped with 3N HCl 100 µl/well and the absorbance was measured using an ELISA plate reader (Sunrise, TECAN, Switzerland) at 450 nm.
The IC50 value was determined using one-site competition non-linear regression and Kd values of the curves with or without antagonists were calculated using one-binding site non-linear regression analysis with Prism software (GraphPad Software Inc.). The Ki was obtained using Schild plot where Log[DR-1] is a function of the negative Log10 of the inhibitor concentration. The Hill's coefficient was calculated using linear fitting to evaluate whether the inhibition was competitive or uncompetitive.
To identify compounds interfering with EphA2-ephrinA1 binding we immobilized EphA2-Fc- ectodomain on proper ELISA plates and binding of biotinylated-ephrin-A1-Fc was detected using the colorimetric reaction developed by streptavidine-HRP and tetramethylbenzidine.

[2] = target: T2, EphA2 (Homo sapiens, UniProt P29317); assay: Phosphorylated-EphA2 sandwich ELISA in PC3 cell lysates; type: cell-based; design: their known ability to naturally express EphA2; endogenous in cells; host or cells: PC3 (A5); settings: PC3 cells, 100 µM
Description: (§1) Cells were seeded in 12-well plates at concentration of 10^5cells/ml in complete medium until they reached ∼40% confluence and serum starved overnight. The day after cells were treated with compounds under study, vehicle or standard drug, stimulated with the proper agonist, rinsed with sterile PBS and solubilized in lysis buffer. The lysates were resuspended and rocked at 4°C for 30 minutes and then centrifuged at 14000 xg for 5 minutes. The protein content of supernatant was measured with BCA protein assay kit (Thermo scientific), standardized to 200 µg/ml and transferred into a clean test tube ready to be used.
(§2) EphA2-, EphB4- and EGFR-phosphorylation were measured in cell lysates using DuoSet®IC Sandwich ELISA (RnD Systems, #DYC4056, #DYC4057 and #DYC1095, respectively) following manufacturer's protocol. […] The day after wells were washed and blocked for 1 hour at room temperature. After that, wells were washed and 100 µl/well of lysates were added at room temperature for 2 hours; wells were washed and incubated with Detection Antibody at room temperature for 2 hours.
(§3) EphB4 phosphorylation was stimulated with 3 µg/ml ephrinB2-Fc, preclustered with 0.3 µg/ml IgG Fc fragment on T47D cells (G, H, I). […] Phospho-EphA2/B4 levels are relative to ephrinA1/B2-Fc+DMSO. Data are the means of at least three independent experiment ± st. err. One-way ANOVA followed by Dunnet's post test was performed comparing Fc to all other columns for Fig A, D, G and ephrinA1-Fc+DMSO to all other columns for Fig B,C,E, F, H, I. *, p<0.05, **, p<0.01.

[3] = target: T2, EphA2; assay: Phosphorylated-EphA2 sandwich ELISA in HT29 cell lysates; type: cell-based; design: their known ability to naturally express EphA2; endogenous in cells; host or cells: HT29 (A6); settings: HT29 cells, 100 µM
Description: as §1, §2, §3

T2 sequence (P29317 24-976): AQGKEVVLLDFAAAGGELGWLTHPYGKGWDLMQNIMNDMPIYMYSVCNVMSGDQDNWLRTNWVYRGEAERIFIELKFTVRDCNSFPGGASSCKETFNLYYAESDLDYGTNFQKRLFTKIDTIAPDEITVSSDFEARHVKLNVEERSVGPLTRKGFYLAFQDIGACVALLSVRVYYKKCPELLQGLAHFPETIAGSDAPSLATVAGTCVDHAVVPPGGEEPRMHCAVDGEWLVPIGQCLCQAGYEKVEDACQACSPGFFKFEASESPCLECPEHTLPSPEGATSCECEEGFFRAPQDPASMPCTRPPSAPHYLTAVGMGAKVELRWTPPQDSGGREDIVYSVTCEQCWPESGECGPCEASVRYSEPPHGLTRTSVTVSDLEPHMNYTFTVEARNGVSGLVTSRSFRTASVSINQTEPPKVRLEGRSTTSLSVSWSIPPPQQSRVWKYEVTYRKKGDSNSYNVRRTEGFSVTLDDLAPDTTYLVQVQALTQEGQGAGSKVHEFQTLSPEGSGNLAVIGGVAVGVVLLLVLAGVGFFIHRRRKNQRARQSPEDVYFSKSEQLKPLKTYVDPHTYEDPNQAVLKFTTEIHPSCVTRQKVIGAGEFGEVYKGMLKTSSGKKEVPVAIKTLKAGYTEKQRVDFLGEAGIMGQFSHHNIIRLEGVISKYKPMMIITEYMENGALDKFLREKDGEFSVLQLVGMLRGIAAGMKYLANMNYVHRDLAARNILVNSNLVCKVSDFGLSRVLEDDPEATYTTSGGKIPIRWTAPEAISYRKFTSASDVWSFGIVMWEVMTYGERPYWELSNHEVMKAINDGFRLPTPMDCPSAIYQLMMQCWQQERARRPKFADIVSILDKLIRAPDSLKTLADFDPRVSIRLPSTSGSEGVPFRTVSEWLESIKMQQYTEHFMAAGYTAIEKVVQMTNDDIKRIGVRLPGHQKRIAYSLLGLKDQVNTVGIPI
T1 sequence (Q03145 26-538 limits assumed): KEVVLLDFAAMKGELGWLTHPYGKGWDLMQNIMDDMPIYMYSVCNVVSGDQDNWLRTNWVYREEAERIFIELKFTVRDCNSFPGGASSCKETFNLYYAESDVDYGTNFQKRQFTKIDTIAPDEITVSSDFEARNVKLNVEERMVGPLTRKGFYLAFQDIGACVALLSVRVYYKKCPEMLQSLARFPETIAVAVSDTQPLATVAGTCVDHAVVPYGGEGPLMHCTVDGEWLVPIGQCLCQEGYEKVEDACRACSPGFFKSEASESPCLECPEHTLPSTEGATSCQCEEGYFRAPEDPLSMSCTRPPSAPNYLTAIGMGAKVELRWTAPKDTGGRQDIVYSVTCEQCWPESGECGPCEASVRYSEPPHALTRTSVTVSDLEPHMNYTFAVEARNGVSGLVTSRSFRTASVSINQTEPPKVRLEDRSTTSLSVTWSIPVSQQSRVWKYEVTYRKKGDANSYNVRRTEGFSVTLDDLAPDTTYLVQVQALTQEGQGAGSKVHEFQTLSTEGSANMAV

Molecule: C[C@H](CCC(=O)O)[C@H]1CC[C@H]2[C@@H]3[C@H](O)C[C@@H]4C[C@H](O)CC[C@]4(C)[C@H]3C[C@H](O)[C@]12C [CA, cholic]
- decrease of EphA2-ephrinA1 binding [1]: did not displaced
- effect on Eph kinase phosphorylation as agonist or antagonist [2]: inactive
- effect on Eph kinase phosphorylation as agonist or antagonist [3]: inactive

Molecule: C[C@H](CCC(=O)O)[C@H]1CC[C@H]2[C@@H]3[C@H](O)C[C@@H]4C[C@H](O)CC[C@]4(C)[C@H]3CC[C@]12C [CDCA, chenodeoxycholic]
- decrease of EphA2-ephrinA1 binding [1]: did not displaced
- effect on Eph kinase phosphorylation as agonist or antagonist [2]: inactive
- effect on Eph kinase phosphorylation as agonist or antagonist [3]: inactive

Now from value to molecule:

- decrease of EphA2-ephrinA1 binding [1]: did not displaced
- effect on Eph kinase phosphorylation as agonist or antagonist [2]: inactive
- effect on Eph kinase phosphorylation as agonist or antagonist [3]: inactive
Molecule: C[C@H](CCC(=O)O)[C@H]1CC[C@H]2[C@@H]3CC[C@@H]4C[C@H](O)CC[C@]4(C)[C@H]3C[C@H](O)[C@]12C [DCA, deoxycholic]

- Ki of EphA2-biotinylated-ephrin-A1 binding inhibition ([1]; assay validation, Figure S1): 0.102 µg/mL
B1: ephrinA1-Fc: recombinant ephrinA1-Fc protein, ligand of the EphA2-Fc receptor (protein)
chain: DRHIVFWNSSNPKFREEDYTVHVQLNDYLDIICPHYEDDSVADAAMERYTLYMVEHQEYVACQPQSKDQVRWNCNRPSAKHGPEKLSEKFQRFTPFILGKEFKEGHSYYYISKPIYHQESQCLKLKVTVNGKITHNPQAHVNPQEKRLQADDPEVQVLHSIGYS
modifications: Ectodomain only, with the C-terminal IgG Fc carrier omitted; The Fc chimera is a disulfide-linked dimer; Limits follow the mature ectodomain without the signal peptide and GPI propeptide, by supplier

Source: publication PMC3068151 (PLoS ONE, 2011)
